Ten molecules from ChEMBL document CHEMBL5465560, “Selectivity Literature for EUbOPEN Chemogenomic Library” (2024) can be followed below.

Assay [1] has as its target T1, Serine/threonine-protein kinase TBK1 (Homo sapiens) (UniProt Q9UHD2).
T1 sequence (whole entry): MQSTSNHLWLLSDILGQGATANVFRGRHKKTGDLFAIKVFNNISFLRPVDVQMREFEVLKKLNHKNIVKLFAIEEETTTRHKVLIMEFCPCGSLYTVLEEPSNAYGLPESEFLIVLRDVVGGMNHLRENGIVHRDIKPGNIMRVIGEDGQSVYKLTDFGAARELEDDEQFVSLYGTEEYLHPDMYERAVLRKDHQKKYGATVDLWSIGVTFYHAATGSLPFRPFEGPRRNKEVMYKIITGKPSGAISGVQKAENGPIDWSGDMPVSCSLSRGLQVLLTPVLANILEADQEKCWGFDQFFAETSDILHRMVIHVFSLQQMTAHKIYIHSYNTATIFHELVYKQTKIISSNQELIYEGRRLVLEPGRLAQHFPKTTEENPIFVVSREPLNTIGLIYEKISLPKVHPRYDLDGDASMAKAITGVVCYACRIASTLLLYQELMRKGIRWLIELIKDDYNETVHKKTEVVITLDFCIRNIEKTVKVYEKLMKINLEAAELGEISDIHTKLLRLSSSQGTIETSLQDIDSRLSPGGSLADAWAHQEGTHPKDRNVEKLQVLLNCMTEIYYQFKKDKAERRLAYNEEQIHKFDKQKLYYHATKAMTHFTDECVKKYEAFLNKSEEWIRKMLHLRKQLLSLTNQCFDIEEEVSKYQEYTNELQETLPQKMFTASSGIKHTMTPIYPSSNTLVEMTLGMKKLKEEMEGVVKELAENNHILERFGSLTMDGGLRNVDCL
Kind of assay: Selectivity interaction (Upstate Kinase Profiler service (Millipore)) EUB0000056c TBK1. Particulars: at 1 µM.

Assay [2] concerns the target T2, Tyrosine-protein kinase Mer (Homo sapiens) (UniProt Q12866).
T2 sequence (whole entry): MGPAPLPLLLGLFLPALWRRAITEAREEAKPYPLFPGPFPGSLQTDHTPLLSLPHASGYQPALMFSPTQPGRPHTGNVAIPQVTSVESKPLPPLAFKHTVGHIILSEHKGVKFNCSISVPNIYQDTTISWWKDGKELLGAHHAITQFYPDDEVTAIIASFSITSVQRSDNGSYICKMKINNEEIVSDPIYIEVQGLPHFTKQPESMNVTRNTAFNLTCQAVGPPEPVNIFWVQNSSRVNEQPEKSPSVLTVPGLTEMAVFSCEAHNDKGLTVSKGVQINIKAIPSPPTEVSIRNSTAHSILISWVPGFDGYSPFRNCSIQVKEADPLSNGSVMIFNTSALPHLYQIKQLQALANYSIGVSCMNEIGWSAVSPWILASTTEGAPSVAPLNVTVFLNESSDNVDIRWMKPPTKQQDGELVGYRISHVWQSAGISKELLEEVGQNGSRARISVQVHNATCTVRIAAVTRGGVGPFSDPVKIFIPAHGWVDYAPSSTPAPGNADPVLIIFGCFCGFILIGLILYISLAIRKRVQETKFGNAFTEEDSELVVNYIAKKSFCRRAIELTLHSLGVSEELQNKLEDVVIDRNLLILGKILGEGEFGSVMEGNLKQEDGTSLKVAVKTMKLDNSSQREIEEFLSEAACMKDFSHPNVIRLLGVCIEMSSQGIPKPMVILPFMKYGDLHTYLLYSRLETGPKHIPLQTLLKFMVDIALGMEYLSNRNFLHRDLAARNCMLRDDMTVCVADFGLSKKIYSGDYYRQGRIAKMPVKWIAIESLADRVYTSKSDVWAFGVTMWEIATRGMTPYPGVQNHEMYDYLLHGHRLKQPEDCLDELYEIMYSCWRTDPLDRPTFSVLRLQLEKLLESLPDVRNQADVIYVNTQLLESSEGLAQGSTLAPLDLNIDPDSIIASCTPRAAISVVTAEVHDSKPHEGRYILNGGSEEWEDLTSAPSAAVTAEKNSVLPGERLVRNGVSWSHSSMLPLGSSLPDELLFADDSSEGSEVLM
Particulars: at 10 µM.

Assay [3] has as its target Serine/threonine-protein kinase Chk2 (Homo sapiens) (UniProt O96017). Kind of assay: Selectivity interaction (KinomeScan (DiscoverX)) EUB0001079a CHEK2. As to conditions: at 1 µM.
The test system of assay [4] is Tyrosine-protein kinase ABL1 (Homo sapiens), P00519 [T315I]. Kind of assay: Selectivity interaction (KinomeScan (DiscoverX)) EUB0000092b ABL1. Particulars: at 10 µM.
For assay [5], the target named is MAP kinase-interacting serine/threonine-protein kinase 1 (Homo sapiens) (UniProt Q9BUB5). Kind of assay: Selectivity interaction (KinomeScan (DiscoverX)) EUB0000695a MKNK1. As to conditions: at 100 nM.
MAP kinase-interacting serine/threonine-protein kinase 1 (Homo sapiens), sequence (Q9BUB5 whole entry, looked up): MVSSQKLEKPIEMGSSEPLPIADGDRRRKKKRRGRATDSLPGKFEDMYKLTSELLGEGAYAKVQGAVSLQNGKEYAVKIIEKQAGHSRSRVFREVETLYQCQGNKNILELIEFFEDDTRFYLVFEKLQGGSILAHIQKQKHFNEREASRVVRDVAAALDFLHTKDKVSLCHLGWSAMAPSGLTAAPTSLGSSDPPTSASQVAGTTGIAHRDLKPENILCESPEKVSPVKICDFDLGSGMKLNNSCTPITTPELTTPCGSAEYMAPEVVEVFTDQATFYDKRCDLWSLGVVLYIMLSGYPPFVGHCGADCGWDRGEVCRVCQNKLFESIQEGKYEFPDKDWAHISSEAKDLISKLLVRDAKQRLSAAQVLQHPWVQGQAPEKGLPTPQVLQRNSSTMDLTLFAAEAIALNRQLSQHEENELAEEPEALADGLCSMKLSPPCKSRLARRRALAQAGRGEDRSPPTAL
For assay [6], the target named is Bromodomain-containing protein 4 (Homo sapiens, UniProt O60885). Kind of assay: Selectivity interaction (Bromodomain panel (DSF asssay)) EUB0000270b BRD4.
The target in assay [7] is Serine/threonine-protein kinase MARK1 (Homo sapiens) (UniProt Q9P0L2). Kind of assay: Selectivity interaction (KinomeScan (DiscoverX)) EUB0000045b MARK1.
Serine/threonine-protein kinase MARK1 (Homo sapiens), sequence (Q9P0L2 whole entry, looked up): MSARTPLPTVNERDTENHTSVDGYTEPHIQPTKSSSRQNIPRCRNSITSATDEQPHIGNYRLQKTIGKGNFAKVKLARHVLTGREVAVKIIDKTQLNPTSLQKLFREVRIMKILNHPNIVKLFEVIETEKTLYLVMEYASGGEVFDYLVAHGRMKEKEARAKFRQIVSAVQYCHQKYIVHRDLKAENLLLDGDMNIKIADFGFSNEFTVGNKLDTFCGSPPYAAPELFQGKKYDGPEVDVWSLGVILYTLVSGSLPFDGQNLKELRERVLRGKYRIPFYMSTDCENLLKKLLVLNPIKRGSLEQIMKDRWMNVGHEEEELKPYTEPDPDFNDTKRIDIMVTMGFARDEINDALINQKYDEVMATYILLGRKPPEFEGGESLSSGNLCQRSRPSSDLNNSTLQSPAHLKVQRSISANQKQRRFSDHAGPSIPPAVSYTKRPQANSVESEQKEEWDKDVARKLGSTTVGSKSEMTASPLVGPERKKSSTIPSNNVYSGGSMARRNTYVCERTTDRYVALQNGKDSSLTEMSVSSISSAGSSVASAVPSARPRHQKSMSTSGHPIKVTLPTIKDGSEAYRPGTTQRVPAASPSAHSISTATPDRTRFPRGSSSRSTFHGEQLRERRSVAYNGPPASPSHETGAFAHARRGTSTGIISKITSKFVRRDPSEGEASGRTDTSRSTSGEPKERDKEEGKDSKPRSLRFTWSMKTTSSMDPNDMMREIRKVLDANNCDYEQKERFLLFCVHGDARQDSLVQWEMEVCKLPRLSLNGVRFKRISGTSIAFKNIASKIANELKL
Assay [8] has as its target Calcium/calmodulin-dependent protein kinase type 1G (Homo sapiens) (UniProt Q96NX5). Kind of assay: Selectivity interaction (KinomeScan (DiscoverX)) EUB0000666a CAMK1G. Particulars: at 10 µM.
Assay [9] addresses T3, Homeodomain-interacting protein kinase 4 (Homo sapiens) (UniProt Q8NE63).
T3 sequence (whole entry): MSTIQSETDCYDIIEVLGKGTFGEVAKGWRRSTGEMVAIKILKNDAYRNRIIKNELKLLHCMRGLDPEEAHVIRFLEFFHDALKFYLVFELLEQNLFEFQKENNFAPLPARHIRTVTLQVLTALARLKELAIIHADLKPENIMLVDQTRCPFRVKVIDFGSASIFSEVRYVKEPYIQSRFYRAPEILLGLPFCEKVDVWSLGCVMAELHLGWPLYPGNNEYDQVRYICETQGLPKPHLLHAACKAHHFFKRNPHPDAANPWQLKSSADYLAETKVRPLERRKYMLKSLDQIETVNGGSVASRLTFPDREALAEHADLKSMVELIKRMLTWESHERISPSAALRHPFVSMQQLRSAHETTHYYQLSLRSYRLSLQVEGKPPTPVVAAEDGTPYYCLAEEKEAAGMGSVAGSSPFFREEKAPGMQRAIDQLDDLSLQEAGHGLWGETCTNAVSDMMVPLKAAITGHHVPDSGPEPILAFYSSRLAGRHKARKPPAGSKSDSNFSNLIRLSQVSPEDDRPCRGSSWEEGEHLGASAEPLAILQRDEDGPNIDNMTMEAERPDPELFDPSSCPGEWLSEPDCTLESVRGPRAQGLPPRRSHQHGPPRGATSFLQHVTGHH
Kind of assay: Selectivity interaction (Kinase panel (Invitrogen)) EUB0000639a HIPK4. Particulars: at 200 nM.

Assay [10] addresses Dual specificity protein kinase CLK2 (Homo sapiens, UniProt P49760). Kind of assay: Selectivity interaction (KinomeScan (DiscoverX)) EUB0000618a CLK2. As to conditions: at 10 µM.

Serine/threonine-protein kinase Chk2 (Homo sapiens), sequence (O96017 whole entry): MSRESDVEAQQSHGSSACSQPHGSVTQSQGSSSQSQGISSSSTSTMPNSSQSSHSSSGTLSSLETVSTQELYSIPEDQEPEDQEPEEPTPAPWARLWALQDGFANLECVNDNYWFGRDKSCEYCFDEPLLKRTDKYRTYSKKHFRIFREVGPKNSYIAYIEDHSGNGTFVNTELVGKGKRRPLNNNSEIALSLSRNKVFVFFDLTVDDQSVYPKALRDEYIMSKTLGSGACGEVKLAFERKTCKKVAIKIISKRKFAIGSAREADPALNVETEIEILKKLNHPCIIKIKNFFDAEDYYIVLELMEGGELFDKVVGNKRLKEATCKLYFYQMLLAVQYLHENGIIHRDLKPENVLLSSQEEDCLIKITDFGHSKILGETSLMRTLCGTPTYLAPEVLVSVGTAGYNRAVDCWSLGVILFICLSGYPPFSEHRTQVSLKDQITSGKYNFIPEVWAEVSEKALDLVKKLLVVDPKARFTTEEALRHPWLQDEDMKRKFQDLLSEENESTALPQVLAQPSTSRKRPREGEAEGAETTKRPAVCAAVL
Dual specificity protein kinase CLK2, sequence (P49760 whole entry, looked up): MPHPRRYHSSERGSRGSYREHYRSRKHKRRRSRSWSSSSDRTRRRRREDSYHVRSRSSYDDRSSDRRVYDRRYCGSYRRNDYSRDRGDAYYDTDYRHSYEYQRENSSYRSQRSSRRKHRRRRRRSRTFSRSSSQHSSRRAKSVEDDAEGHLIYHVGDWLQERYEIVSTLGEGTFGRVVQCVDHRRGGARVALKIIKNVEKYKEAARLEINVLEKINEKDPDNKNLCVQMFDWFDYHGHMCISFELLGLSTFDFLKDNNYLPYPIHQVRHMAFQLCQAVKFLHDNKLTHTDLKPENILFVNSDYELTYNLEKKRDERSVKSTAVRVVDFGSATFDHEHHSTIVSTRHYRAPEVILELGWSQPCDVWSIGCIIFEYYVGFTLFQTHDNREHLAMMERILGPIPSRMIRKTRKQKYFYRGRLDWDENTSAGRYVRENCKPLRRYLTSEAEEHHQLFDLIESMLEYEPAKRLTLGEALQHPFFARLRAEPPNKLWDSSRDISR
Calcium/calmodulin-dependent protein kinase type 1G (Homo sapiens), sequence (Q96NX5 whole entry): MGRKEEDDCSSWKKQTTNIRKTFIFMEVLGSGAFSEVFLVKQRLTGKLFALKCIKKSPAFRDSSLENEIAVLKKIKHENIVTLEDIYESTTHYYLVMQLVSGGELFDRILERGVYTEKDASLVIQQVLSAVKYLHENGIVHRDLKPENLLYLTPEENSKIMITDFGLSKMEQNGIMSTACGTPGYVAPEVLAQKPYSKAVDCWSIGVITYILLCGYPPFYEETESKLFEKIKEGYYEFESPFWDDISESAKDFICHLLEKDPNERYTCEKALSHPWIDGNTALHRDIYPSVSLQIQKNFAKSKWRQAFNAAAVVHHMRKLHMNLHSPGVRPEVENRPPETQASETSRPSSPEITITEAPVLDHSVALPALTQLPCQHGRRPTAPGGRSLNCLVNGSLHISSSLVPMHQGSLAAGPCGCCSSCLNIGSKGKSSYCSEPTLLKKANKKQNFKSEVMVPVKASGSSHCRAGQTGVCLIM

With `Cc1ccc(-c2ccc3c(ccc4sc5c(c43)NC[C@@H](C)NC5=O)n2)cn1`, the % of inhibition in assay [1] came out at 18%.

Consider `CCN(CC)CCCCNc1ncc2cc(-c3cc(OC)cc(OC)c3)c(NC(=O)NC(C)(C)C)nc2n1`, for which, in assay [2], the % of control was found to be 100%. In turn, `Nc1cnc(N2CCc3cc(S(=O)(=O)Nc4c(F)cc(Cl)cc4F)cc(N4CCCC4=O)c32)nc1` [TP-020n] displayed a % of control in assay [3] of 92%. For the molecule `CCC(=O)N1CCN(c2ccc(-n3c(=O)ccc4cnc5ccc(-c6cnc7ccccc7c6)cc5c43)cc2C(F)(F)F)CC1`, the % of control in [4] was determined as 100%. Consider `Cc1cc(F)c(C(=O)Nc2cccc(-c3nncn3C(C)C)n2)cc1-n1cnc(C2CC2)c1`, for which, in assay [5], the % of control is 96%.

As for `Cc1cc(CN)cc(C)c1-c1ncn(C)c1-c1cncn1C`, in assay [6], the dTM was -0.92 K. For the molecule `C=CC(=O)Nc1cc(-n2c(=O)ccc3cnc4ccc(-c5ccc(NS(C)(=O)=O)cc5)cc4c32)ccc1C`, the % of control in assay [7] (at 1 µM) was determined as 97%; in [7] (at 10 µM) it was 89%. Take `O=C(NOC[C@H](O)CO)c1ccc(F)c(F)c1Nc1ccc(I)cc1F`: the % of control in assay [8] came out at 100%. For the molecule `CC[C@@H]1[C@H](F)C(=O)N[C@@H]1COc1nccc2cc(C(N)=O)c(OC)cc12` [ZIMLOVISERTIB], the % of inhibition in assay [9] turned out to be 5.27%. As for `O[C@H]1CC[C@H](Nc2ncc3nc(Nc4c(F)cc(F)cc4F)n([C@H]4CCOC4)c3n2)CC1`, the % of control in [10] amounted to 7.7%.
